Measured values: patent US11440907B1 (Merck Patent GmbH, priority 2018, dated 2022)

Key:
[1] = test system: XBP1(u)-luciferase splicing reporter in HepG2 hepatoma cells; experiment: HepG2 XBP1 reporter assay (XBP1(u)-Luc); format: cell-based; conditions: Homo sapiens, 6 hours after compound addition, Table 3, read-out: XBP1-luc HepG2 1 EC50
[2] = test system: β-catenin-TCF-mediated reporter transcription activity in Colo 205 cells; experiment: Colo 205 reporter assay (TCF/LEF promoter-driven firefly luciferase); format: cell-based; conditions: Homo sapiens; Colo 205 TCF/LEF luciferase reporter, 5 hours after compound addition, 384 well; read-out: Colo205 IC50
Source text: The compounds of the invention described herein were screened using the assay procedure for β-catenin-TCF-mediated reporter transcription activity described below.
Reporter cell lines were generated by stably transfecting cells of cancer cell lines (e.g., colon cancer) with a plasmid reporter construct (From SABiosciences, a QIAGEN company) that includes TCF/LEF promoter driving expression of the firefly luciferase gene. TCF/LEF reporter constructs were made in which TCF/LEF promoter, a promoter with optimal number of TCF/LEF binding sites designed by SABiosciences, was linked upstream of the firefly luciferase gene. This construct could also include a puromycin resistance gene as a selectable marker. This construct could also be used to stably transfect Colo 205 cells, a colon cancer cell line having a mutated APC gene that causes a constitutively active β-catenin. A control cell line was generated using another plasmid construct containing the luciferase gene under the control of a CMV basal promoter which is not activated by β-catenin.
Colo 205 Cultured cells with a stably transfected reporter construct were plated at approximately 10,000 cells per well into 384 well multi-well plates for twenty four hours. The testing compounds were then added to the wells in 2-fold serial dilutions using a twenty micromolar top concentration. A series of control wells for each cell type received only compound solvent. Five hours after the addition of compound, reporter activity for luciferase was assayed, by addition of the SteadyGlo luminescence reagent (Promega). The reporter luminescence activity was measured using Pherastar plate reader (BMG Labtech). Readings were normalized to DMSO only treated cells, and normalized activities were then used in the IC50 calculations. The Colo 205 reporter assay data are summarized in Table 3: A<0.3 μM; 0.3 μM≤B<1.0 μM; 1.0 μM≤C<5.0 μM; D≥5.0 μM.

## Cc1cc(N2CCCOCC2c2ccc(NC(=O)C(C)(F)F)cc2Cl)nc(N)n1 (racemic) [I-228, (+/−)-N-(4-(4-(2-amino-6-methylpyrimidin-4-yl)-1,4-oxazepan-3-yl)-3-chlorophenyl)-2,2-difluoropropanamide]
[1]
  EC50: < 600 nM
[2]
  IC50: 300 to 1000 nM

## Cc1cc(N2CCCOCC2c2ccc(OCC3(C)CCOC3)cc2Cl)nc(N)n1 (racemic) [I-229, (+/−)-4-[3-[2-chloro-4-[(3-methyltetrahydrofuran-3-yl)methoxy]phenyl]-1,4-oxazepan-4-yl]-6-methyl-pyrimidin-2-amine]
[1]
  EC50: < 600 nM
[2]
  IC50: 300 to 1000 nM

## Cc1cc(N2CCCOCC2c2ccc(OCCC(C)(C)O)cc2Cl)nc(N)n1 (racemic) [I-230, (+/−)-4-[4-[4-(2-amino-6-methyl-pyrimidin-4-yl)-1,4-oxazepan-3-yl]-3-chloro-phenoxy]-2-methyl-butan-2-ol]
[1]
  EC50: < 600 nM
[2]
  IC50: 300 to 1000 nM

## Cc1cc(N2CCCOCC2c2ccc(OC3COC3)cc2Cl)nc(N)n1 (racemic) [I-231, (+/−)-4-[3-[2-chloro-4-(oxetan-3-yloxy)phenyl]-1,4-oxazepan-4-yl]-6-methyl-pyrimidin-2-amine]
[1]
  EC50: < 600 nM
[2]
  IC50: < 300 nM

## Cc1cc(N2CCCOCC2c2ccc(OC[C@@H](C)O)cc2Cl)nc(N)n1 (mixture of isomers) [I-232, (+/−)-1-(4-(4-(2-amino-6-methylpyrimidin-4-yl)-1,4-oxazepan-3-yl)-3-chlorophenoxy)propan-2-ol]
[1]
  EC50: < 600 nM
[2]
  IC50: < 300 nM

## Cc1cc(N2CCCOCC2c2ccc(OCC3(CO)CC3)cc2Cl)nc(N)n1 (racemic) [I-233, (+/−)-[1-[[4-[4-(2-amino-6-methyl-pyrimidin-4-yl)-1,4-oxazepan-3-yl]-3-chloro-phenoxy]methyl]-cyclopropyl]methanol]
[1]
  EC50: 600 to 2000 nM
[2]
  IC50: < 300 nM

## Cc1cc(N2CCCOCC2c2ccc(C3CCCO3)cc2Cl)nc(N)n1 (racemic) [I-235, (+/−)-4-(3-(2-chloro-4-(tetrahydrofuran-2-yl)phenyl)-1,4-oxazepan-4-yl)-6-methylpyrimidin-2-amine]
[1]
  EC50: < 600 nM
[2]
  IC50: < 300 nM

## Cc1cc(N2CCCOCC2c2ccc(C(CO)CO)cc2Cl)nc(N)n1 (racemic) [I-236, (+/−)-2-(4-(4-(2-amino-6-methylpyrimidin-4-yl)-1,4-oxazepan-3-yl)-3-chlorophenyl)propane-1,3-diol]
[1]
  EC50: < 600 nM
[2]
  IC50: < 300 nM

## Cc1cc(N2CCCOCC2c2ccc(C3CCOC3)cc2Cl)nc(N)n1 (racemic) [I-238, (+/−)-4-(3-(2-chloro-4-(tetrahydrofuran-3-yl)phenyl)-1,4-oxazepan-4-yl)-6-methylpyrimidin-2-amine]
[1]
  EC50: < 600 nM
[2]
  IC50: < 300 nM

## Cc1cc(N2CCCOCC2c2ccc(C3CCC(=O)N3C)cc2Cl)nc(N)n1 (racemic) [I-239, (+/−)-5-(4-(4-(2-amino-6-methylpyrimidin-4-yl)-1,4-oxazepan-3-yl)-3-chlorophenyl)-1-methylpyrrolidin-2-one]
[1]
  EC50: < 600 nM
[2]
  IC50: 300 to 1000 nM

## Cc1cc(N2CCCOCC2c2cc(NC(=O)C3CC3)ccc2Cl)nc(N)n1 (racemic) [I-241, (+/−)-N-[3-[4-(2-amino-6-methyl-pyrimidin-4-yl)-1,4-oxazepan-3-yl]-4-chloro-phenyl]cyclopropanecarboxamide]
[1]
  EC50: < 600 nM
[2]
  IC50: < 300 nM

## Cc1cc(N2CCCOCC2c2cc(NCCCO)ccc2Cl)nc(N)n1 (racemic) [I-249, (+/−)-3-[3-[4-(2-amino-6-methyl-pyrimidin-4-yl)-1,4-oxazepan-3-yl]-4-chloro-anilino]propan-1-ol]
[1]
  EC50: < 600 nM
[2]
  IC50: < 300 nM

## Cc1cc(N2CCCOCC2c2cc(NC(=O)C(F)F)ccc2Cl)nc(N)n1 (racemic) [I-250, (+/−)-N-(3-(4-(2-amino-6-methylpyrimidin-4-yl)-1,4-oxazepan-3-yl)-4-chlorophenyl)-2,2-difluoroacetamide]
[1]
  EC50: < 600 nM
[2]
  IC50: < 300 nM

## Cc1cc(N2CCCOCC2c2cc(NC(=O)CC(C)(C)O)ccc2Cl)nc(N)n1 (racemic) [I-251, (+/−)-N-[3-[4-(2-amino-6-methyl-pyrimidin-4-yl)-1,4-oxazepan-3-yl]-4-chloro-phenyl]-3-hydroxy-3-methyl-butanamide]
[1]
  EC50: 600 to 2000 nM
[2]
  IC50: < 300 nM

## CC(=O)N(C)Cc1ccc(C2COCCCN2c2cc(C)nc(N)n2)c(Cl)c1 (racemic) [I-254, (+/−)-N-(4-(4-(2-amino-6-methylpyrimidin-4-yl)-1,4-oxazepan-3-yl)-3-chlorobenzyl)-N-methylacetamide]
[1]
  EC50: < 600 nM
[2]
  IC50: < 300 nM

## Cc1cc(N2CCCOCC2c2ccc(C3COC3)cc2Cl)nc(N)n1 (racemic) [I-255, (+/−)-4-[3-[2-chloro-4-(oxetan-3-yl)phenyl]-1,4-oxazepan-4-yl]-6-methyl-pyrimidin-2-amine]
[1]
  EC50: 600 to 2000 nM
[2]
  IC50: < 300 nM

## Cc1cc(N2CCCOCC2c2ccc(C3CCCN3)cc2Cl)nc(N)n1 (racemic) [I-267]
[1]
  EC50: < 600 nM
[2]
  IC50: < 300 nM

## Cc1cc(N2CCCOCC2c2cc3c(cc2Cl)SCC(=O)N3)nc(N)n1 (racemic) [I-268, 6-[4-(2-amino-6-methyl-pyrimidin-4-yl)-1,4-oxazepan-3-yl]-7-chloro-4H-1,4-benzothiazin-3-one]
[1]
  EC50: < 600 nM
[2]
  IC50: < 300 nM

## Cc1cc(N2CCCOCC2c2ccc(N3CCN(C(=O)C4CC4)CC3)cc2Cl)nc(N)n1 (racemic) [I-273, (+/−)-[4-[4-[4-(2-amino-6-methyl-pyrimidin-4-yl)-1,4-oxazepan-3-yl]-3-chloro-phenyl]piperazin-1-yl]-cyclopropyl-methanone]
[1]
  EC50: < 600 nM
[2]
  IC50: < 300 nM

## Cc1cc(N2CCCOCC2c2cc3c(cc2Cl)SCCN3)nc(N)n1 (racemic) [I-274, 4-[3-(7-chloro-3,4-dihydro-2H-1,4-benzothiazin-6-yl)-1,4-oxazepan-4-yl]-6-methyl-pyrimidin-2-amine]
[1]
  EC50: ≥ 5000 nM
[2]
  IC50: 300 to 1000 nM

## Cc1cc(N2CCCOC[C@H]2c2ccc(NC(=O)C(C)(C)O)cc2Cl)nc(N)n1 (racemic) [I-277, (+/−)-N-(4-(4-(2-amino-6-methylpyrimidin-4-yl)-1,4-oxazepan-3-yl)-3-chlorophenyl)-2-hydroxy-2-methylpropanamide]
[1]
  EC50: < 600 nM
[2]
  IC50: < 300 nM

## Cc1cc(N2CCCOCC2c2ccc(NC(=O)C3(F)CCOC3)cc2Cl)nc(N)n1 (racemic) [I-279, (+/−)-N-(4-(4-(2-amino-6-methylpyrimidin-4-yl)-1,4-oxazepan-3-yl)-3-chlorophenyl)-3-fluorotetrahydrofuran-3-carboxamide]
[1]
  EC50: < 600 nM
[2]
  IC50: < 300 nM

## Cc1cc(N2CCCOCC2c2ccc(NC(=O)[C@@H]3CCOC3)cc2Cl)nc(N)n1 (mixture of isomers) [I-280, (3R)—N-(4-(4-(2-amino-6-methylpyrimidin-4-yl)-1,4-oxazepan-yl)-3-chlorophenyl)-tetrahydrofuran-3-carboxamide]
[1]
  EC50: < 600 nM
[2]
  IC50: 300 to 1000 nM

## Cc1cc(N2CCCOCC2c2ccc(NC(=O)[C@H]3CCOC3)cc2Cl)nc(N)n1 (mixture of isomers) [I-281, (3S)—N-(4-(4-(2-amino-6-methylpyrimidin-4-yl)-1,4-oxazepan-3-yl)-3-chlorophenyl)-tetrahydrofuran-3-carboxamide]
[1]
  EC50: 600 to 2000 nM
[2]
  IC50: 300 to 1000 nM
